Laboratory results taken from BindingDB's records for doi:10.1021/jm3017656 (Vanderbilt University School of Medicine, 2013).

Target: T1, Androgen receptor (Homo sapiens, UniProt P10275)
T1 sequence (P10275 whole entry): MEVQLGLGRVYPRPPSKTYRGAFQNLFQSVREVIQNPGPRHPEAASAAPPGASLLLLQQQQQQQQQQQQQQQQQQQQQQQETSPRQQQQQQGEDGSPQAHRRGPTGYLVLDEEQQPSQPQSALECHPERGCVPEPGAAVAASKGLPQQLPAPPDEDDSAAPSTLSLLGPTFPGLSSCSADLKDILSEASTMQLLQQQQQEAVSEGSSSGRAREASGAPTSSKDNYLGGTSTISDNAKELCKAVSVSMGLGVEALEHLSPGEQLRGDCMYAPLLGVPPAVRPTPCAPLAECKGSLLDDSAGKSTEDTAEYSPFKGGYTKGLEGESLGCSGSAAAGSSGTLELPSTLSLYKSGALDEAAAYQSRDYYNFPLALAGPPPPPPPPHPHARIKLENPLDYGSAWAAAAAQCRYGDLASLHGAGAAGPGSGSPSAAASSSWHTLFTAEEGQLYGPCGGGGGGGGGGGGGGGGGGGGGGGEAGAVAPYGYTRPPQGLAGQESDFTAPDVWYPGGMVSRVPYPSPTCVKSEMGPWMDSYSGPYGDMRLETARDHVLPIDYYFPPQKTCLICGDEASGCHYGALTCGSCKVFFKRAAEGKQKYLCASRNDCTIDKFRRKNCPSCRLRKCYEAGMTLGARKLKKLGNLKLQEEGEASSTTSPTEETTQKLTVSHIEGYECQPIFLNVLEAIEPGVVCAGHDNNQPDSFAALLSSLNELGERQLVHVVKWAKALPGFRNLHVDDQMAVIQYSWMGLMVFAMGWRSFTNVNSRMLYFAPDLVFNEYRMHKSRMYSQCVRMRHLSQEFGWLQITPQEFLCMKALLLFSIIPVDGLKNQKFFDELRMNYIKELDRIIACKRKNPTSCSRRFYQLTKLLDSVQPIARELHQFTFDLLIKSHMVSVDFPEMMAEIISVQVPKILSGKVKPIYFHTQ
Assay: Agonist activity at androgen receptor (unknown origin) expressed in HeLa cells co-expressing PSA-(ARE)4-Luc13 assessed as induction of DHT-induced luciferase activity after […] by luciferase reporter gene assay

Row | EC50 | SMILES
1 | 0.14 nM | COc1ccc2c(c1)c(C)c(CCC(=O)NS(C)(=O)=O)n2C(=O)c1ccc(Cl)cc1
2 | 0.15 nM | COc1ccc2c(c1)c(C)c(CCC(=O)O)n2C(=O)c1ccc(Cl)cc1
3 | 0.1 nM | COc1ccc2c(c1)c(CC(=O)NS(=O)(=O)C(F)(F)F)cn2C(=O)c1ccc(Cl)cc1
4 | 0.14 nM | COc1ccc2c(c1)c(CC(=O)O)c(C)n2C(=O)c1ccc(Cl)cc1 [indometacin]
